Laboratory results as given in BigSolDB 2.1.

SMILES | solubility (mole fraction) (in acetone, 253.15 K) | solubility (mole fraction) (in acetone, 258.15 K) | solubility (mole fraction) (in acetone, 263.15 K) | solubility (mole fraction) (in acetone, 268.15 K) | solubility (mole fraction) (in acetone, 273.15 K) | solubility (mole fraction) (in acetone, 278.15 K) | solubility (mole fraction) (in acetone, 283.15 K) | solubility (mole fraction) (in acetonitrile, 243.15 K) | solubility (mole fraction) (in acetonitrile, 248.15 K) | solubility (mole fraction) (in acetonitrile, 253.15 K) | solubility (mole fraction) (in acetonitrile, 258.15 K) | solubility (mole fraction) (in acetonitrile, 263.15 K) | solubility (mole fraction) (in acetonitrile, 268.15 K) | solubility (mole fraction) (in acetonitrile, 273.15 K) | solubility (mole fraction) (in acetonitrile, 278.15 K) | solubility (mole fraction) (in acetonitrile, 283.15 K) | solubility (mole fraction) (in ethyl acetate, 253.15 K) | solubility (mole fraction) (in ethyl acetate, 258.15 K) | solubility (mole fraction) (in ethyl acetate, 263.15 K) | solubility (mole fraction) (in ethyl acetate, 268.15 K) | also measured
NC(=O)c1ccccc1O | 0.0592 | 0.0639 | 0.0703 | 0.077 | 0.0839 | 0.0911 | 0.0986 | 0.005 | 0.006 | 0.0071 | 0.0087 | 0.0108 | 0.012 | 0.0143 | 0.017 | 0.0199 | 0.0305 | 0.0335 | 0.0374 | 0.0406 | solubility (mole fraction) (in ethyl acetate, 273.15 K): 0.0446; solubility (mole fraction) (in ethyl acetate, 278.15 K): 0.0497; solubility (mole fraction) (in ethyl acetate, 283.15 K): 0.0547; solubility (mole fraction) (in methanol, 253.15 K): 0.012; solubility (mole fraction) (in methanol, 258.15 K): 0.0136; solubility (mole fraction) (in methanol, 263.15 K): 0.0157; solubility (mole fraction) (in methanol, 268.15 K): 0.0181; solubility (mole fraction) (in methanol, 273.15 K): 0.0204; solubility (mole fraction) (in methanol, 278.15 K): 0.0233; solubility (mole fraction) (in methanol, 283.15 K): 0.0266
O=C(O)c1ccccc1O | 0.0913 | 0.0978 | 0.108 | 0.114 | 0.122 | 0.138 | 0.143 | 0.0052 | 0.0061 | 0.0071 | 0.0084 | 0.01 | 0.012 | 0.0141 | 0.0159 | 0.0185 | 0.0554 | 0.0651 | 0.075 | 0.086 | solubility (mole fraction) (in ethyl acetate, 273.15 K): 0.09; solubility (mole fraction) (in ethyl acetate, 278.15 K): 0.099; solubility (mole fraction) (in ethyl acetate, 283.15 K): 0.107; solubility (mole fraction) (in methanol, 253.15 K): 0.0605; solubility (mole fraction) (in methanol, 258.15 K): 0.065; solubility (mole fraction) (in methanol, 263.15 K): 0.0699; solubility (mole fraction) (in methanol, 268.15 K): 0.075; solubility (mole fraction) (in methanol, 273.15 K): 0.083; solubility (mole fraction) (in methanol, 278.15 K): 0.09; solubility (mole fraction) (in methanol, 283.15 K): 0.1
